# Assay results taken from ChEMBL document CHEMBL3885881, “DrugMatrix”.
# Species: Rattus norvegicus
# Assay: DrugMatrix - Regimen: Daily Repeat
# Assay type: toxicity, organism-based, Sprague-Dawley
# Set-up: regimen Daily Repeat, gender Male, age 6-8 weeks
# Settings: in vivo, po, 300 mg/kg, route oral GAVAGE, dose level Low, vehicle 100 % WATER; for ABSOLUTE BASOPHIL / ABSOLUTE EOSINOPHIL / ABSOLUTE LYMPHOCYTE / ABSOLUTE MONOCYTE / ABSOLUTE SEGMENTED NEUTROPHIL / BASOPHIL / EOSINOPHIL / ERYTHROCYTE COUNT / HEMATOCRIT / HEMOGLOBIN / LEUKOCYTE COUNT / LYMPHOCYTE / MEAN CORPUSCULAR HEMOGLOBIN / MEAN CORPUSCULAR HEMOGLOBIN CONCENTRATION / MEAN CORPUSCULAR VOLUME / MONOCYTE / NEUTROPHIL / NUCLEATED RED BLOOD CELLS / PLATELET COUNT: tissue Blood; for ALANINE AMINOTRANSFERASE / ALBUMIN / ALKALINE PHOSPHATASE / ASPARTATE AMINOTRANSFERASE / BLOOD UREA NITROGEN / CARBON DIOXIDE / CHLORIDE / CHOLESTEROL / CREATINE PHOSPHOKINASE / CREATININE / GLUCOSE / LACTATE DEHYDROGENASE / LIPASE / PHOSPHORUS / POTASSIUM / SODIUM / TOTAL BILIRUBIN / TOTAL PROTEIN / URIC ACID: tissue Plasma
compound,measurement,setting,value
O=C(O)CCNC(=O)c1ccc(/N=N/c2ccc(O)c(C(=O)O)c2)cc1 [BALSALAZIDE],ABSOLUTE BASOPHIL,"72 h, time 3 day",0 CELLS/uL
same,ABSOLUTE EOSINOPHIL,"72 h, time 3 day",0 CELLS/uL
same,ABSOLUTE LYMPHOCYTE,"72 h, time 3 day",11801 CELLS/uL
same,ABSOLUTE MONOCYTE,"72 h, time 3 day",66 CELLS/uL
same,ABSOLUTE SEGMENTED NEUTROPHIL,"72 h, time 3 day",833 CELLS/uL
same,BASOPHIL,"72 h, time 3 day",0%
same,EOSINOPHIL,"72 h, time 3 day",0%
same,ERYTHROCYTE COUNT,"72 h, time 3 day",5.38 x10E6/uL
same,HEMATOCRIT,"72 h, time 3 day",33.73%
same,HEMOGLOBIN,"72 h, time 3 day",13.5 G/DL
same,LEUKOCYTE COUNT,"72 h, time 3 day",12.7 x10E3/uL
same,LYMPHOCYTE,"72 h, time 3 day",93.33%
same,MEAN CORPUSCULAR HEMOGLOBIN,"72 h, time 3 day",25.13 pg
same,MEAN CORPUSCULAR HEMOGLOBIN CONCENTRATION,"72 h, time 3 day",40.03 G/DL
same,MEAN CORPUSCULAR VOLUME,"72 h, time 3 day",62.7 fL
same,MONOCYTE,"72 h, time 3 day",0.33%
same,NEUTROPHIL,"72 h, time 3 day",6.33%
same,NUCLEATED RED BLOOD CELLS,"72 h, time 3 day",0 /100WBC
same,PLATELET COUNT,"72 h, time 3 day",922 x10E3/uL
same,ALANINE AMINOTRANSFERASE,"72 h, time 3 day",56.33 u/L
same,ALBUMIN,"72 h, time 3 day",4.23 G/DL
same,ALKALINE PHOSPHATASE,"72 h, time 3 day",481.33 u/L
same,ASPARTATE AMINOTRANSFERASE,"72 h, time 3 day",94 u/L
same,BLOOD UREA NITROGEN,"72 h, time 3 day",17.33 mg/dL
same,CARBON DIOXIDE,"72 h, time 3 day",29 mmol/L
same,CHLORIDE,"72 h, time 3 day",103.67 MEQ/L
same,CHOLESTEROL,"72 h, time 3 day",73.33 mg/dL
same,CREATINE PHOSPHOKINASE,"72 h, time 3 day",306.67 u/L
same,CREATININE,"72 h, time 3 day",0.22 mg/dL
same,GLUCOSE,"72 h, time 3 day",159.33 mg/dL
same,LACTATE DEHYDROGENASE,"72 h, time 3 day",328 u/L
same,LIPASE,"72 h, time 3 day",8 u/L
same,PHOSPHORUS,"72 h, time 3 day",13.87 mg/dL
same,POTASSIUM,"72 h, time 3 day",6.3 MEQ/L
same,SODIUM,"72 h, time 3 day",144.33 MEQ/L
same,TOTAL BILIRUBIN,"72 h, time 3 day",0.2 mg/dL
same,TOTAL PROTEIN,"72 h, time 3 day",5.93 G/DL
same,URIC ACID,"72 h, time 3 day",1.5 mg/dL
same,ABSOLUTE BASOPHIL,"120 h, time 5 day",0 CELLS/uL
same,ABSOLUTE EOSINOPHIL,"120 h, time 5 day",53.33 CELLS/uL
same,ABSOLUTE LYMPHOCYTE,"120 h, time 5 day",8092.67 CELLS/uL
same,ABSOLUTE MONOCYTE,"120 h, time 5 day",26.67 CELLS/uL
same,ABSOLUTE SEGMENTED NEUTROPHIL,"120 h, time 5 day",694 CELLS/uL
same,BASOPHIL,"120 h, time 5 day",0%
same,EOSINOPHIL,"120 h, time 5 day",0.67%
same,ERYTHROCYTE COUNT,"120 h, time 5 day",5.99 x10E6/uL
same,HEMATOCRIT,"120 h, time 5 day",38.2%
same,HEMOGLOBIN,"120 h, time 5 day",14.6 G/DL
same,LEUKOCYTE COUNT,"120 h, time 5 day",8.87 x10E3/uL
same,LYMPHOCYTE,"120 h, time 5 day",91%
same,MEAN CORPUSCULAR HEMOGLOBIN,"120 h, time 5 day",24.43 pg
same,MEAN CORPUSCULAR HEMOGLOBIN CONCENTRATION,"120 h, time 5 day",38.2 G/DL
same,MEAN CORPUSCULAR VOLUME,"120 h, time 5 day",63.9 fL
same,MONOCYTE,"120 h, time 5 day",0.33%
same,NEUTROPHIL,"120 h, time 5 day",8%
same,NUCLEATED RED BLOOD CELLS,"120 h, time 5 day",0 /100WBC
same,PLATELET COUNT,"120 h, time 5 day",965 x10E3/uL
same,ALANINE AMINOTRANSFERASE,"120 h, time 5 day",61.67 u/L
same,ALBUMIN,"120 h, time 5 day",4.17 G/DL
same,ALKALINE PHOSPHATASE,"120 h, time 5 day",384.67 u/L
same,ASPARTATE AMINOTRANSFERASE,"120 h, time 5 day",83.67 u/L
same,BLOOD UREA NITROGEN,"120 h, time 5 day",17.67 mg/dL
same,CARBON DIOXIDE,"120 h, time 5 day",28.67 mmol/L
same,CHLORIDE,"120 h, time 5 day",102 MEQ/L
same,CHOLESTEROL,"120 h, time 5 day",63.33 mg/dL
same,CREATINE PHOSPHOKINASE,"120 h, time 5 day",238.33 u/L
same,CREATININE,"120 h, time 5 day",0.22 mg/dL
same,GLUCOSE,"120 h, time 5 day",182.67 mg/dL
same,LACTATE DEHYDROGENASE,"120 h, time 5 day",142.67 u/L
same,LIPASE,"120 h, time 5 day",12.33 u/L
same,PHOSPHORUS,"120 h, time 5 day",14.5 mg/dL
same,POTASSIUM,"120 h, time 5 day",6.43 MEQ/L
same,SODIUM,"120 h, time 5 day",146.73 MEQ/L
same,TOTAL BILIRUBIN,"120 h, time 5 day",0.2 mg/dL
same,TOTAL PROTEIN,"120 h, time 5 day",6.07 G/DL
same,URIC ACID,"120 h, time 5 day",2.17 mg/dL
